# From ChEMBL document CHEMBL4330149, “Lignan Dimers from Forsythia viridissima Roots and Their Antiviral Effects” (J Nat Prod, 2019)
# Tested on: Coxsackievirus B3
# Assay: Antiviral activity against Coxsackievirus B3 infected in African green monkey Vero cells assessed as reduction in virus-induced cytopathic effect after 2 days by SRB staining based microscopic method
# Type: functional, organism-based
# Conditions: Enterovirus B, 48 h
row,SMILES,IC50 [µM]
1,COc1cc([C@@H](OC)[C@@H]2CO[C@H](c3ccc(O)c(OC)c3)[C@@H]2CO)ccc1O (relative stereo),15.4
2,CCOC(=O)/C=C/[C@H](C[C@@H]1CCNC1=O)NC(=O)[C@@H](CC(=O)[C@@H](NC(=O)c1cc(C)on1)C(C)C)Cc1ccc(F)cc1 [RUPINTRIVIR],6.6

# Tested on: not listed separately
# Assay: Cytotoxicity against African green monkey Vero cells assessed as growth inhibition after 2 days by SRB assay
# Type: cell-based
# Conditions: chlorocebus sabaeus
row,SMILES,CC50 at 48 h [µM]
1,COc1cc([C@@H](OC)[C@@H]2CO[C@H](c3ccc(O)c(OC)c3)[C@@H]2CO)ccc1O (relative stereo),> 50
2,CCOC(=O)/C=C/[C@H](C[C@@H]1CCNC1=O)NC(=O)[C@@H](CC(=O)[C@@H](NC(=O)c1cc(C)on1)C(C)C)Cc1ccc(F)cc1 [RUPINTRIVIR],> 50

# Tested on: not listed separately
# Assay: Selectivity index, ratio of CC50 for African green monkey Vero cells to IC50 for Coxsackievirus B3 infected in African green monkey Vero cells
# Type: toxicity
# Conditions: read-out: Ratio CC50/IC50
row,SMILES,selectivity ratio
1,COc1cc([C@@H](OC)[C@@H]2CO[C@H](c3ccc(O)c(OC)c3)[C@@H]2CO)ccc1O (relative stereo),> 3.2
2,CCOC(=O)/C=C/[C@H](C[C@@H]1CCNC1=O)NC(=O)[C@@H](CC(=O)[C@@H](NC(=O)c1cc(C)on1)C(C)C)Cc1ccc(F)cc1 [RUPINTRIVIR],> 7.6

# Tested on: rhinovirus A1B
# Assay: Antiviral activity against Human rhinovirus 1B infected in human HeLa cells assessed as reduction in virus-induced cytopathic effect after 2 days by SRB staining based microscopic method
# Type: functional, organism-based
# Conditions: Rhinovirus A, 48 h
row,SMILES,IC50 [µM]
1,COc1cc(C[C@H]2C(=O)OC[C@@H]2Cc2cc(OC)c(O)c(-c3cc(C[C@H]4C(=O)OC[C@@H]4Cc4ccc(OC)c(OC)c4)cc(OC)c3O)c2)ccc1O,45.7
2,COc1cc(C[C@H]2COC(=O)[C@@H]2Cc2ccc(O)c(OC)c2)ccc1O [MATAIRESINOL],43.2
3,COc1cc(C[C@H]2COC(=O)[C@@H]2Cc2cc(OC)c(O)c(-c3cc(C[C@H]4C(=O)OC[C@@H]4Cc4ccc(OC)c(OC)c4)cc(OC)c3O)c2)ccc1O,47.5
4,COc1ccc(C[C@H]2COC(=O)[C@@H]2Cc2ccc(Oc3cc(C[C@H]4C(=O)OC[C@@H]4Cc4ccc(OC)c(OC)c4)cc(OC)c3O)c(OC)c2)cc1OC,13

# Tested on: not listed separately
# Assay: Cytotoxicity against human HeLa cells assessed as growth inhibition after 2 days by SRB assay
# Type: cell-based
# Conditions: not given
row,SMILES,CC50 at 48 h [µM]
1,COc1cc(C[C@H]2C(=O)OC[C@@H]2Cc2cc(OC)c(O)c(-c3cc(C[C@H]4C(=O)OC[C@@H]4Cc4ccc(OC)c(OC)c4)cc(OC)c3O)c2)ccc1O,> 50
2,CCOC(=O)/C=C/[C@H](C[C@@H]1CCNC1=O)NC(=O)[C@@H](CC(=O)[C@@H](NC(=O)c1cc(C)on1)C(C)C)Cc1ccc(F)cc1 [RUPINTRIVIR],> 50
3,COc1cc(C[C@H]2COC(=O)[C@@H]2Cc2ccc(O)c(OC)c2)ccc1O [MATAIRESINOL],> 50
4,COc1cc(C[C@H]2COC(=O)[C@@H]2Cc2cc(OC)c(O)c(-c3cc(C[C@H]4C(=O)OC[C@@H]4Cc4ccc(OC)c(OC)c4)cc(OC)c3O)c2)ccc1O,> 50
5,COc1ccc(C[C@H]2COC(=O)[C@@H]2Cc2ccc(Oc3cc(C[C@H]4C(=O)OC[C@@H]4Cc4ccc(OC)c(OC)c4)cc(OC)c3O)c(OC)c2)cc1OC,> 50

# Tested on: not listed separately
# Assay: Selectivity index, ratio of CC50 for human HeLa cells to IC50 for Human rhinovirus 1B infected in human HeLa cells
# Type: toxicity, cell-based
# Conditions: read-out: Ratio CC50/IC50
row,SMILES,selectivity ratio
1,COc1cc(C[C@H]2C(=O)OC[C@@H]2Cc2cc(OC)c(O)c(-c3cc(C[C@H]4C(=O)OC[C@@H]4Cc4ccc(OC)c(OC)c4)cc(OC)c3O)c2)ccc1O,> 1.1
2,COc1cc(C[C@H]2COC(=O)[C@@H]2Cc2ccc(O)c(OC)c2)ccc1O [MATAIRESINOL],> 1.2
3,COc1cc(C[C@H]2COC(=O)[C@@H]2Cc2cc(OC)c(O)c(-c3cc(C[C@H]4C(=O)OC[C@@H]4Cc4ccc(OC)c(OC)c4)cc(OC)c3O)c2)ccc1O,> 1.1
4,COc1ccc(C[C@H]2COC(=O)[C@@H]2Cc2ccc(Oc3cc(C[C@H]4C(=O)OC[C@@H]4Cc4ccc(OC)c(OC)c4)cc(OC)c3O)c(OC)c2)cc1OC,> 3.8
